The results in this text go back to patent US11965039B2, “Compstatin analogues and their medical uses” (priority 2018, dated 2024).

As usually defined, the IC50 is the concentration needed to halve the response being measured.

In data set [1] the test system is classical complement pathway. Nature of the data set: In vitro haemolysis assay (inhibition of classical complement pathway). It is filed as cell-based, human. The conditions noted are these: human serum, sensitized sheep red blood cells. A digest of the protocol: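 Compound dilutions preincubated 15 min at room temperature with diluted human serum (titrated per batch for 70-90% maximal haemolysis), then antibody-sensitized sheep RBC (10^7/well) added for 30 min at 37 °C in Tris/casein buffer, pH 7.4. Stopped with EDTA; haemolysis read at 405 nm; IC50 by 4PL fit.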

A short description of data set [2]: Solubility test at 10 mg/mL (visual inspection and light scattering). To be noted: for Solubility, Condition 1: Acetate pH 4; for Solubility, Condition 2: Acetate pH 5; for Solubility, Condition 3: Phosphate pH 6; for Solubility, Condition 4: Phosphate pH 7; for Solubility, Condition 5: Phosphate pH 7.5. It is filed as physicochemical.
The mark [3] stands for this setting: Table 3, given as upper bounds, read-out: IC50, inhibition of hemolysis.
Setting [4] is: Table 4, valine 3 vs isoleucine 3 pairs, read-out: CP hemolysis IC50.

Where two headings read alike, the source gives them in different places. Positions of bridges follow the written chain, without caps; N, C: chain ends. Non-standard residues stand in square brackets, D forms with d. Residues, ends and D or L forms follow the SMILES beside them. Trp(1-Me) = Cn1cc(C[C@H](N)C(=O)O)c2ccccc21; Sar = CNCC(=O)O Some results are limits rather than exact numbers.

`CC[C@H](C)[C@H](NC(=O)[C@H](C)NC(=O)[C@H](CO)NC(=O)CNC(=O)[C@H](CCC(=O)O)NC(C)=O)C(=O)N[C@H]1CSSC[C@@H](C(=O)N(C)CC(=O)N[C@@H](CCC(=O)O)C(N)=O)NC(=O)[C@H](CCCNC(=N)N)NC(=O)[C@H](Cc2c[nH]cn2)NC(=O)[C@H](CCC(=O)O)NC(=O)CNC(=O)[C@H](Cc2c[nH]c3ccccc23)NC(=O)[C@H](CC(=O)O)NC(=O)[C@H](CCC(N)=O)NC(=O)[C@H](Cc2c[nH]c3ccccc23)NC(=O)[C@H]([C@@H](C)CC)NC1=O` [Compound 28] (Ac-EGSAICIWQDWGEHRC[Sar]E-NH2; disulfide 6-16): the IC50 in data set [1] (setting [3]) is below 100 nM. Also, the IC50 in data set [1] (setting [4]) is 88 nM. In data set [2], the “Solubility, Condition 1” value was “+ (“+” denotes solubility at the given condition, as determined by UV absorbance being less than 0.1 AU at 340 nm and the sample being clear when manually inspected)”; the “Solubility, Condition 2” value was “+ (“+” denotes solubility at the given condition, as determined by UV absorbance being less than 0.1 AU at 340 nm and the sample being clear when manually inspected)”; the “Solubility, Condition 3” value is “+ (“+” denotes solubility at the given condition, as determined by UV absorbance being less than 0.1 AU at 340 nm and the sample being clear when manually inspected)”; the “Solubility, Condition 4” value was “+ (“+” denotes solubility at the given condition, as determined by UV absorbance being less than 0.1 AU at 340 nm and the sample being clear when manually inspected)”. Further, the “Solubility, Condition 5” value in data set [2] was “+ (“+” denotes solubility at the given condition, as determined by UV absorbance being less than 0.1 AU at 340 nm and the sample being clear when manually inspected)”.
Take `CC[C@H](C)[C@@H]1NC(=O)[C@@H](NC(=O)[C@H](Cc2ccccc2)NC(=O)[C@H](CCC(=O)O)NC(=O)[C@H](CO)NC(C)=O)CSSC[C@@H](C(=O)N[C@H](C(=O)NCC(=O)N[C@@H](C)C(=O)N[C@@H](CCC(=O)O)C(=O)N[C@@H](CO)C(N)=O)[C@@H](C)O)NC(=O)[C@H](CCCNC(=N)N)NC(=O)[C@H](Cc2c[nH]cn2)NC(=O)[C@H](CCC(=O)O)NC(=O)CNC(=O)[C@H](Cc2c[nH]c3ccccc23)NC(=O)[C@H](CC(=O)O)NC(=O)[C@H](CCC(N)=O)NC(=O)[C@H](Cc2cn(C)c3ccccc23)NC1=O` [Compound 67] (Ac-SEFCI[Trp(1-Me)]QDWGEHRCTGAES-NH2; disulfide 4-14): in data set [1] (setting [3]), the IC50 was below 100 nM. In data set [2], the “Solubility, Condition 1” value is “− (“−” denotes lack of solubility at the given condition, as UV absorbance at 340 nm exceeds 0.1 AU and/or it is visibly turbid or contains particles)”; the “Solubility, Condition 2” value is reported as “− (“−” denotes lack of solubility at the given condition, as UV absorbance at 340 nm exceeds 0.1 AU and/or it is visibly turbid or contains particles)”; the “Solubility, Condition 3” value was “+ (“+” denotes solubility at the given condition, as determined by UV absorbance being less than 0.1 AU at 340 nm and the sample being clear when manually inspected)”; the “Solubility, Condition 4” value was “+ (“+” denotes solubility at the given condition, as determined by UV absorbance being less than 0.1 AU at 340 nm and the sample being clear when manually inspected)”. Also, the “Solubility, Condition 5” value in data set [2] was “+ (“+” denotes solubility at the given condition, as determined by UV absorbance being less than 0.1 AU at 340 nm and the sample being clear when manually inspected)”.
`CC[C@H](C)[C@@H]1NC(=O)[C@@H](NC(=O)[C@H](Cc2ccccc2)NC(=O)[C@H](CCC(=O)O)NC(=O)[C@H](CO)NC(C)=O)CSSC[C@@H](C(=O)N(C)CC(=O)NCC(=O)N[C@@H](C)C(=O)N[C@@H](CCC(=O)O)C(=O)N[C@@H](CO)C(N)=O)NC(=O)[C@H](CCCNC(=N)N)NC(=O)[C@H](Cc2c[nH]cn2)NC(=O)[C@H](CCC(=O)O)NC(=O)CNC(=O)[C@H](Cc2c[nH]c3ccccc23)NC(=O)[C@H](CC(=O)O)NC(=O)[C@H](CCC(N)=O)NC(=O)[C@H](Cc2cn(C)c3ccccc23)NC1=O` [Compound 74] (Ac-SEFCI[Trp(1-Me)]QDWGEHRC[Sar]GAES-NH2; disulfide 4-14): the IC50 in data set [1] (setting [3]) was below 100 nM. Also, in data set [2], the “Solubility, Condition 1” value is given as “− (“−” denotes lack of solubility at the given condition, as UV absorbance at 340 nm exceeds 0.1 AU and/or it is visibly turbid or contains particles)”; the “Solubility, Condition 2” value is “+ (“+” denotes solubility at the given condition, as determined by UV absorbance being less than 0.1 AU at 340 nm and the sample being clear when manually inspected)”; the “Solubility, Condition 3” value was “+ (“+” denotes solubility at the given condition, as determined by UV absorbance being less than 0.1 AU at 340 nm and the sample being clear when manually inspected)”; the “Solubility, Condition 4” value is “+ (“+” denotes solubility at the given condition, as determined by UV absorbance being less than 0.1 AU at 340 nm and the sample being clear when manually inspected)”. For the same compound, in data set [2], the “Solubility, Condition 5” value is “+ (“+” denotes solubility at the given condition, as determined by UV absorbance being less than 0.1 AU at 340 nm and the sample being clear when manually inspected)”.
Regarding `CC[C@H](C)[C@@H]1NC(=O)[C@@H](NC(=O)[C@@H](NC(=O)[C@H](CCC(=O)O)NC(=O)[C@H](CO)NC(=O)[C@H](CCC(=O)O)NC(C)=O)[C@@H](C)CC)CSSC[C@@H](C(=O)N[C@H](C(N)=O)[C@@H](C)O)NC(=O)[C@H](CCCNC(=N)N)NC(=O)[C@H](Cc2c[nH]cn2)NC(=O)[C@H](CCC(=O)O)NC(=O)CNC(=O)[C@H](Cc2c[nH]c3ccccc23)NC(=O)[C@H](CC(=O)O)NC(=O)[C@H](CCC(N)=O)NC(=O)[C@H](Cc2c[nH]c3ccccc23)NC1=O` [Compound 31] (Ac-ESEICIWQDWGEHRCT-NH2; disulfide 5-15), the IC50 in data set [1] (setting [3]) is below 100 nM. Moreover, in data set [2], the “Solubility, Condition 1” value was “+ (“+” denotes solubility at the given condition, as determined by UV absorbance being less than 0.1 AU at 340 nm and the sample being clear when manually inspected)”; the “Solubility, Condition 2” value is “+ (“+” denotes solubility at the given condition, as determined by UV absorbance being less than 0.1 AU at 340 nm and the sample being clear when manually inspected)”; the “Solubility, Condition 3” value is “+ (“+” denotes solubility at the given condition, as determined by UV absorbance being less than 0.1 AU at 340 nm and the sample being clear when manually inspected)”; the “Solubility, Condition 4” value is “+ (“+” denotes solubility at the given condition, as determined by UV absorbance being less than 0.1 AU at 340 nm and the sample being clear when manually inspected)”. Besides, the “Solubility, Condition 5” value in data set [2] is “+ (“+” denotes solubility at the given condition, as determined by UV absorbance being less than 0.1 AU at 340 nm and the sample being clear when manually inspected)”.
Turning to `CC[C@H](C)[C@H](NC(=O)[C@H](C)NC(=O)[C@H](CO)NC(=O)[C@H](CO)NC(=O)[C@H](CCC(=O)O)NC(C)=O)C(=O)N[C@H]1CSSC[C@@H](C(=O)N[C@H](C(N)=O)[C@@H](C)O)NC(=O)[C@H](CCCNC(=N)N)NC(=O)[C@H](Cc2c[nH]cn2)NC(=O)[C@H](CCC(=O)O)NC(=O)CNC(=O)[C@H](Cc2c[nH]c3ccccc23)NC(=O)[C@H](CC(=O)O)NC(=O)[C@H](CCC(N)=O)NC(=O)[C@H](Cc2c[nH]c3ccccc23)NC(=O)[C@H]([C@@H](C)CC)NC1=O` [Compound 3] (Ac-ESSAICIWQDWGEHRCT-NH2; disulfide 6-16), the IC50 in data set [1] (setting [3]) is below 100 nM. The IC50 in data set [1] (setting [4]) was 69 nM. For the same compound, in data set [2], the “Solubility, Condition 1” value was “+ (“+” denotes solubility at the given condition, as determined by UV absorbance being less than 0.1 AU at 340 nm and the sample being clear when manually inspected)”; the “Solubility, Condition 2” value is “− (“−” denotes lack of solubility at the given condition, as UV absorbance at 340 nm exceeds 0.1 AU and/or it is visibly turbid or contains particles)”; the “Solubility, Condition 3” value is listed as “− (“−” denotes lack of solubility at the given condition, as UV absorbance at 340 nm exceeds 0.1 AU and/or it is visibly turbid or contains particles)”; the “Solubility, Condition 4” value was “+ (“+” denotes solubility at the given condition, as determined by UV absorbance being less than 0.1 AU at 340 nm and the sample being clear when manually inspected)”. The “Solubility, Condition 5” value in data set [2] is “+ (“+” denotes solubility at the given condition, as determined by UV absorbance being less than 0.1 AU at 340 nm and the sample being clear when manually inspected)”.
As for `CC[C@H](C)[C@@H]1NC(=O)[C@@H](NC(=O)[C@H](Cc2ccc(O)cc2)NC(C)=O)CSSC[C@@H](C(=O)N[C@H](C(=O)N[C@@H](CCC(=O)O)C(=O)N[C@@H](C)C(=O)NCC(=O)N[C@@H](CO)C(N)=O)[C@@H](C)O)NC(=O)[C@H](CCCNC(=N)N)NC(=O)[C@H](Cc2c[nH]cn2)NC(=O)[C@H](CCC(=O)O)NC(=O)CNC(=O)[C@H](Cc2c[nH]c3ccccc23)NC(=O)[C@H](CC(=O)O)NC(=O)[C@H](CCC(N)=O)NC(=O)[C@H](Cc2cn(C)c3ccccc23)NC1=O` [Compound 68] (Ac-YCI[Trp(1-Me)]QDWGEHRCTEAGS-NH2; disulfide 2-12), in data set [1] (setting [3]), the IC50 is below 100 nM. For the same compound, in data set [2], the “Solubility, Condition 1” value is “− (“−” denotes lack of solubility at the given condition, as UV absorbance at 340 nm exceeds 0.1 AU and/or it is visibly turbid or contains particles)”; the “Solubility, Condition 2” value was “− (“−” denotes lack of solubility at the given condition, as UV absorbance at 340 nm exceeds 0.1 AU and/or it is visibly turbid or contains particles)”; the “Solubility, Condition 3” value was “+ (“+” denotes solubility at the given condition, as determined by UV absorbance being less than 0.1 AU at 340 nm and the sample being clear when manually inspected)”; the “Solubility, Condition 4” value was “+ (“+” denotes solubility at the given condition, as determined by UV absorbance being less than 0.1 AU at 340 nm and the sample being clear when manually inspected)”. Also, the “Solubility, Condition 5” value in data set [2] is “+ (“+” denotes solubility at the given condition, as determined by UV absorbance being less than 0.1 AU at 340 nm and the sample being clear when manually inspected)”.
